Patent US9814711B2, “Antitubercular composition comprising rifampicin, isoniazid, ethambutol and pyrazinamide and its process of preparation” (priority 2013, dated 2017)
Where a name gives a salt, the structure may show the parent alone.

experiment: Stability: active ingredient content of coated tablets, initial and after aging at 40° C. and 75% relative humidity; assay type: physicochemical; conditions: coated tablet of Example 1, aging 1 month at 40° C. and 75% relative humidity

SMILES	percentage of active ingredient measured relative to the target quantity
CC[C@@H](CO)NCCN[C@@H](CC)CO [Ethambutol HCl, Ethambutol Hydrochloride]	100.3%
NC(=O)c1cnccn1 [Pyrazinamide]	101.2%
NNC(=O)c1ccncc1 [Isoniazid]	97.8%

same assay, conditions: coated tablet of Example 1, aging 2 months at 40° C. and 75% relative humidity

SMILES	percentage of active ingredient measured relative to the target quantity
CC[C@@H](CO)NCCN[C@@H](CC)CO [Ethambutol HCl, Ethambutol Hydrochloride]	101.4%
NC(=O)c1cnccn1 [Pyrazinamide]	100.5%
NNC(=O)c1ccncc1 [Isoniazid]	98.20%

same assay, conditions: coated tablet of Example 1, initial

SMILES	percentage of active ingredient measured relative to the target quantity
CC[C@@H](CO)NCCN[C@@H](CC)CO [Ethambutol HCl, Ethambutol Hydrochloride]	100.6%
NC(=O)c1cnccn1 [Pyrazinamide]	101.3%
NNC(=O)c1ccncc1 [Isoniazid]	100.0%

experiment: Dissolution time test (pH 6.8 phosphate buffer, 900 mL, paddle 100 rpm, HPLC); assay type: physicochemical; conditions: coated tablet of Example 1, aged 1 month at 40° C. and 75% relative humidity; pH 6.8 phosphate buffer 900 mL paddle 100 rpm
Procedure: The dissolution time of the actives can be measured by introducing one tablet (weight 1090 mg) in 900 mL of water at 37° C. buffered to pH 6.8 with a phosphate buffer wherein the medium is mixed with a paddle at 100 rpm. The phosphate buffer is prepared by dissolving 7 g of anhydrous dibasic sodium phosphate in 5 L of water, and adjusting with phosphoric acid to a pH of 6.8. The percentage of the actives dissolved at a given time can be measured by high performance liquid chromatography (HPLC).

SMILES	% of dissolved actives at 45 min after beginning the Dissolution time test
CC[C@@H](CO)NCCN[C@@H](CC)CO [Ethambutol HCl, Ethambutol Hydrochloride]	100%
NC(=O)c1cnccn1 [Pyrazinamide]	102%
NNC(=O)c1ccncc1 [Isoniazid]	98%

same assay, conditions: coated tablet of Example 1, aged 2 months at 40° C. and 75% relative humidity; pH 6.8 phosphate buffer 900 mL paddle 100 rpm

SMILES	% of dissolved actives at 45 min after beginning the Dissolution time test
CC[C@@H](CO)NCCN[C@@H](CC)CO [Ethambutol HCl, Ethambutol Hydrochloride]	99%
NC(=O)c1cnccn1 [Pyrazinamide]	102%
NNC(=O)c1ccncc1 [Isoniazid]	100%

same assay, conditions: coated tablet of Example 1, initial; pH 6.8 phosphate buffer 900 mL paddle 100 rpm

SMILES	% of dissolved actives at 45 min after beginning the Dissolution time test
CC[C@@H](CO)NCCN[C@@H](CC)CO [Ethambutol HCl, Ethambutol Hydrochloride]	100%
NC(=O)c1cnccn1 [Pyrazinamide]	102%
NNC(=O)c1ccncc1 [Isoniazid]	98%

same assay, conditions: tablet of Example 1, 5 min

SMILES	cumulative percentage of active released
CC[C@@H](CO)NCCN[C@@H](CC)CO [Ethambutol HCl, Ethambutol Hydrochloride]	84
NC(=O)c1cnccn1 [Pyrazinamide]	90
NNC(=O)c1ccncc1 [Isoniazid]	86

same assay, conditions: tablet of Example 1, 10 min

SMILES	cumulative percentage of active released
CC[C@@H](CO)NCCN[C@@H](CC)CO [Ethambutol HCl, Ethambutol Hydrochloride]	99
NC(=O)c1cnccn1 [Pyrazinamide]	101
NNC(=O)c1ccncc1 [Isoniazid]	99

same assay, conditions: tablet of Example 1, 15 min

SMILES	cumulative percentage of active released
CC[C@@H](CO)NCCN[C@@H](CC)CO [Ethambutol HCl, Ethambutol Hydrochloride]	99
NC(=O)c1cnccn1 [Pyrazinamide]	102
NNC(=O)c1ccncc1 [Isoniazid]	100

same assay, conditions: tablet of Example 1, 20 min

SMILES	cumulative percentage of active released
CC[C@@H](CO)NCCN[C@@H](CC)CO [Ethambutol HCl, Ethambutol Hydrochloride]	99
NC(=O)c1cnccn1 [Pyrazinamide]	102
NNC(=O)c1ccncc1 [Isoniazid]	100

same assay, conditions: tablet of Example 1, 30 min

SMILES	cumulative percentage of active released
CC[C@@H](CO)NCCN[C@@H](CC)CO [Ethambutol HCl, Ethambutol Hydrochloride]	99
NC(=O)c1cnccn1 [Pyrazinamide]	102
NNC(=O)c1ccncc1 [Isoniazid]	100

same assay, conditions: tablet of Example 1, 45 min

SMILES	cumulative percentage of active released
CC[C@@H](CO)NCCN[C@@H](CC)CO [Ethambutol HCl, Ethambutol Hydrochloride]	99
NC(=O)c1cnccn1 [Pyrazinamide]	102
NNC(=O)c1ccncc1 [Isoniazid]	100

same assay, conditions: tablet of Example 1, 60 min

SMILES	cumulative percentage of active released
CC[C@@H](CO)NCCN[C@@H](CC)CO [Ethambutol HCl, Ethambutol Hydrochloride]	99
NC(=O)c1cnccn1 [Pyrazinamide]	102
NNC(=O)c1ccncc1 [Isoniazid]	100
